Data published in US20250339434A1, “TREATING NEUROLOGIC DISEASES” (priority 2024, published 2025).
Where “and” joins values, the source holds several entries; their conditions need not be identical. Equal entries are not always repeated. Entries after “also recorded” stand apart in the source; their conditions may differ. Marks after values point to notes of the source that are not given here.

How the values were obtained:
[1] = test system: sFBP positive human subjects (patients) with ASD; assay: Aberrant Behavior Checklist (ABC) scores before and after leucovorin in sFBP positive patients; format: in vivo
From the text: FIGS. 3A-F includes six charts that indicate results of treatments when using the process (100) of FIG. 1 using the Aberrant Behavioral Checklist (ABC, which is known in the field, so will not be explained in detail herein). The patients are the same as the patients in FIGS. 2A-F. Note that the scores/scales are different in FIGS. 3A-F, but the patients are the same and measured over the same time period as FIGS. 2A-F. The difference in ABC scores was compared before and after the start of leucovorin treatment. The Total score decreased by 20.2 (5.9) raw points with leucovorin treatment [F(1,44.8)=11.92, p=0.001, Cohen's d′=0.9]. The Irritability subscale decreased by 5.7 (2.1) raw points with leucovorin treatment [F(1,44.8)=7.56, p<0.01, Cohen's d′=0.6]. […] The Stereotypy subscale decreased by 2.2 (1.0) raw points with leucovorin treatment [F(1,46.4)=4.56, p<0.05, Cohen's d′=0.5]. The Hyperactivity subscale decreased by 6.8 (1.6) raw points with leucovorin treatment [F(1,43.8)=18.34, p<0.001, Cohen's d′=1.1]. […] To get an estimate of the timing of the effect of leucovorin treatment, linear regression models were used to determine the change in ABC scores with each day of leucovorin treatment, as shown in FIGS. 3A-F. The Total score decreased by 0.04 (0.01) raw points per day on leucovorin [F(1,46.3)=12.67, p=0.001]. The Irritability subscale decreased by 0.008 (0.004) raw points per day on leucovorin [F(1,46.5)=5.33, p<0.05]. The Social-Withdrawal subscale decreased by 0.01 (0.003) raw points per day on leucovorin [F(1,44.9)=13.85, p<0.001]. The Stereotypy subscale decreased by 0.004 (0.002) raw points per day on leucovorin [F(1,48.1)=6.17, p<0.05]. The Hyperactivity subscale decreased by 0.01 (0.003) raw points per day on leucovorin [F(1,44.6)=20.56, p<0.001].

[2] = test system: patients with ASD; assay: SRS scores in patients with ASD tested for FRAAs and sFBPs: effect of leucovorin and concurrent treatments; format: in vivo, human; settings: for Association of concurrent treatment with SRS scores: concurrent treatments
Procedure: (§1) In other tests, many patients with ASD were tested for FRAAs and sFBPs to guide clinical management by identifying the clinical characteristics associated with these biomarkers and to determine whether the biomarkers could predict treatment response.
This is due to two opposing effects. It appears that those with higher binding FRAAs that were not treated with leucovorin had more severe ASD symptoms than those with low binding FRAA titers. In contrast, those with higher FRAA titers who were treated with leucovorin appear to have less severe ASD symptoms than those that were treated and had lower binding FRAA titers. […] Those patients with some of the highest binding FRAA titers can have, on average, a eight-to-sixteen point favorable response on SRS subscales, an amount that can move them into more favorable severity categories.
FIGS. 8A-E are a collection of five charts illustrating results of factoring in a titer of binding autoantibody with the folate treatment when applied to several patients, where the results are shown on a Social Responsiveness Scale.
(§2) The following two tables indicate some treatments and a statistically significant effect of concurrent treatments. β indicates an effectiveness on a certain outcome measure. In Table 2 and 3, a negative value for beta indicates a positive result.

[3] = test system: sFBP positive human subjects (patients) with ASD; assay: Social Responsiveness Scale (SRS) scores before and after leucovorin in sFBP positive patients; format: in vivo
Procedure: Turning now to FIGS. 2A-F, six figures indicate results of treatments when using the process (100) of FIG. 1. In sFBP positive human subjects (patients) started on the standard dose of leucovorin (25 mg twice a day) but in 6 of 12 (50%), the dose of leucovorin was increased to 50 mg twice a day in order to obtain an effective response as judged by the ongoing clinical evaluation. The number of days treated with leucovorin ranged from 92 to 1022 days with an average (SD) number of 584 (333) days of treatment. The graphs of FIGS. 2A-F illustrate the patients' responses using a Social Responsiveness Scale (SRS, which is known in the field, so will not be explained in detail herein). The difference in SRS scores was compared before and after the start of leucovorin treatment. The Total score decreased by 7.4 (1.4) t-score points with leucovorin treatment [F(1,44.6)=28.03, p<0.001, Cohen's d′=1.4]. The Awareness subscale decreased by 8.0 (1.9) t-score points with leucovorin treatment [F(1,45.9)=18.01, p<0.001, Cohen's d′=1.1]. The Cognition subscale decreased by 8.5 (1.8) t-score points with leucovorin treatment [F(1,45.4)=21.64, p<0.001, Cohen's d′=1.2]. The Communication subscale decreased by 8.9 (1.6) t-score points with leucovorin treatment [F(1,44.6)=31.22, p<0.001, Cohen's d′=1.4]. The Motivation subscale decreased by 6.9 (2.1) t-score points with leucovorin treatment [F(1,44.8)=10.91, p<0.01, Cohen's d′=0.9]. The Mannerisms subscale decreased by 4.3 (1.9) t-score points with leucovorin treatment [F(1,45.0)=[…], p=0.03, Cohen's d′=0.6]. To determine an estimate of the timing of the effect of leucovorin treatment, linear regression models were used to determine the change in SRS scores with each day of leucovorin treatment, as shown in FIGS. 2A-F. The Total score decreased by 0.01 (0.002) t-score points per day on leucovorin [F(1,46.6)=25.68, p<0.001]. The Awareness subscale decreased by 0.014 (0.003) t-score points per day on leucovorin [F(1,47.2)=19.74, p<0.001]. The Cognition subscale decreased by 0.013 (0.003) t-score points per day on leucovorin [F(1,47.4)=17.49, p<0.001]. The Communication subscale decreased by 0.013 (0.003) t-score points per day on leucovorin [F(1,46.2)=21.48, p<0.001]. The Motivation subscale decreased by 0.01 (0.004) t-score points per day on leucovorin [F(1,46.1)=8.27, p<0.01]. The Mannerisms subscale decreased by 0.008 (0.003) t-score points per day on leucovorin [F(1,46.2)=6.34, p=0.02].

[4] = cited from earlier work
[5] = test system: individuals with ASD; assay: Safety and tolerability in individuals with ASD; format: in vivo, human; settings: vulnerable population (ASD)
[6] = test system: patients with ASD; assay: ABC scores in patients with ASD tested for FRAAs and sFBPs: effect of leucovorin and concurrent treatments; format: in vivo, human; settings: for Effect on ABC Hyperactivity: concurrent treatments
Procedure: as §1, §2

[7] = test system: individuals with ASD; settings: cited from earlier work
[8] = effect size, before vs after leucovorin
[9] = sFBP positive patients, before vs after start of leucovorin
[10] = effect of concurrent treatment, negative beta = positive result

SMILES: Nc1nc2c(c(=O)[nH]1)N(C=O)C(CNc1ccc(C(=O)N[C@@H](CCC(=O)O)C(=O)O)cc1)CN2 (mixture of isomers) [leucovorin, folinic acid]
- Cohen's d′, ABC Hyperactivity subscale [1, 8]: 1.1
- Cohen's d′, ABC Irritability subscale [1, 8]: 0.6
- Cohen's d′, ABC Social Withdrawal subscale [1, 8]: 0.9
- Cohen's d′, ABC Stereotypy subscale [1, 8]: 0.5
- Cohen's d′, ABC Total score [1, 8]: 0.9
- Duration of treatment required for the 5.7 improvement in irritability on the ABC ([1]; individuals positive for sFBPs): two years
- ABC Hyperactivity subscale decrease per day on leucovorin ([1]; linear regression model): 0.01 (0.003) raw points per day
- ABC Inappropriate Speech subscale change per day on leucovorin ([1]; linear regression model): did not change significantly
- ABC Irritability subscale decrease per day on leucovorin ([1]; linear regression model): 0.008 (0.004) raw points per day
- ABC Social-Withdrawal subscale decrease per day on leucovorin ([1]; linear regression model): 0.01 (0.003) raw points per day
- ABC Stereotypy subscale decrease per day on leucovorin ([1]; linear regression model): 0.004 (0.002) raw points per day
- ABC Total score decrease per day on leucovorin ([1]; linear regression model): 0.04 (0.01) raw points per day
- ABC Hyperactivity subscale decrease with leucovorin treatment [1, 9]: 6.8 (1.6) raw points
- ABC Inappropriate Speech subscale change with leucovorin treatment [1, 9]: did not change significantly
- ABC Irritability subscale decrease with leucovorin treatment [1, 9]: 5.7 (2.1) raw points and 5.7 raw points
- ABC Social Withdrawal subscale decrease with leucovorin treatment [1, 9]: 5.8 raw points
- ABC Stereotypy subscale decrease with leucovorin treatment [1, 9]: 2.2 (1.0) raw points
- ABC Total score decrease with leucovorin treatment [1, 9]: 20.2 (5.9) raw points
- SRS t-scores / ASD symptoms as binding FRAA titers increase, with leucovorin treatment ([2]; dependence on binding FRAA titer): less severe ASD symptoms when treated with leucovorin; also recorded: better (lower scores)
- Favorable response on SRS subscales in patients with some of the highest binding FRAA titers ([2]; on average, highest binding FRAA titers): eight-to-sixteen
- Effect on core ASD symptoms ([2]; patients with ASD): improves core ASD symptoms
- Cohen's d′, SRS Awareness subscale [3, 8]: 1.1
- Cohen's d′, SRS Cognition subscale [3, 8]: 1.2
- Cohen's d′, SRS Communication subscale [3, 8]: 1.4
- Cohen's d′, SRS Mannerisms subscale [3, 8]: 0.6
- Cohen's d′, SRS Motivation subscale [3, 8]: 0.9
- Cohen's d′, SRS Total score [3, 8]: 1.4
- Duration of treatment necessary for the 7-point improvement in the SRS ([3]; individuals positive for sFBPs): two years
- SRS Awareness subscale decrease per day on leucovorin ([3]; linear regression model): 0.014 (0.003) t-score points per day
- SRS Cognition subscale decrease per day on leucovorin ([3]; linear regression model): 0.013 (0.003) t-score points per day
- SRS Communication subscale decrease per day on leucovorin ([3]; linear regression model): 0.013 (0.003) t-score points per day
- SRS Mannerisms subscale decrease per day on leucovorin ([3]; linear regression model): 0.008 (0.003) t-score points per day
- SRS Motivation subscale decrease per day on leucovorin ([3]; linear regression model): 0.01 (0.004) t-score points per day
- SRS Total score decrease per day on leucovorin ([3]; linear regression model): 0.01 (0.002) t-score points per day
- SRS score decrease with leucovorin (summary) ([3]; sFBP positive patients): about 7 points
- SRS Total score decrease with leucovorin treatment ([3]; sFBP positive patients (12), before vs after start of leucovorin 25 or 50 mg twice a day, 92 to 1022 days, value (spread)): 7.4 (1.4) t-score points
- SRS Awareness subscale decrease with leucovorin treatment [3, 9]: 8.0 (1.9) t-score points
- SRS Cognition subscale decrease with leucovorin treatment [3, 9]: 8.5 (1.8) t-score points
- SRS Communication subscale decrease with leucovorin treatment [3, 9]: 8.9 (1.6) t-score points
- SRS Mannerisms subscale decrease with leucovorin treatment [3, 9]: 4.3 (1.9) t-score points
- SRS Motivation subscale decrease with leucovorin treatment [3, 9]: 6.9 (2.1) t-score points
- Absorption following oral administration [4]: rapidly absorbed
- Safety and tolerability [5]: extremely safe and well-tolerated
- Effect on ABC Irritability [6]: only improved Irritability; also recorded: overall improving irritability

SMILES: C[N+](C)(C)CC(O)CC(=O)[O-] (centres unmarked) [Carnitine]
- β, SRS Motivation [2, 10]: −2.3 (1.0)*
- Effect on core ASD symptoms in two DBPC studies [7]: improve core ASD symptoms
- Effect on ABC Hyperactivity [6]: improve ABC Hyperactivity
- Effect on ABC Hyperactivity ([6]; listed as carnitine): better score on ABC Hyperactivity

SMILES: C/C1=C2/[N-][C@H]([C@H](CC(N)=O)[C@@]2(C)CCC(=O)NC[C@@H](C)OP(=O)([O-])O[C@H]2[C@@H](O)[C@@H](n3cnc4cc(C)c(C)cc43)O[C@@H]2CO)[C@]2(C)N=C(/C(C)=C3N=C(/C=C4N=C1[C@@H](CCC(N)=O)C\4(C)C)[C@@H](CCC(N)=O)[C@]\3(C)CC(N)=O)[C@@H](CCC(N)=O)[C@]2(C)CC(N)=O.[CH3-].[Co+3] [mB12 SQ, Methyl-cobalamin]
- β, SRS Cognition [2, 10]: −4.3 (1.3)***
- β, SRS Motivation [2, 10]: −3.2 (1.3)*
- β, SRS Total ([2]; effect of concurrent treatment, negative beta = positive result, value (spread)): −2.8 (1.1)**
- Association of concurrent treatment with SRS scores ([2]; patients with ASD): improve the SRS Total score, as well as all subscales except SRS Awareness
- Association of concurrent treatment with SRS scores ([2]; patients with ASD, listed as mB12 Subcutaneous): better SRS scores on a few subscales
